Experimental data taken from BindingDB's records for doi:10.1016/j.bmc.2017.06.049 (Federal University of Alagoas, 2017).

Assay: Inhibition of Chikungunya virus nsP2 protease infected in African green monkey Vero cells assessed as inhibition of viral-induced cytopathic effect by titration assay

## CCOc1ccc(/C=N/NC(=O)/C=C/Cc2ccc(C(C)(C)C)cc2)cc1OCC
  EC50: 3.2 µM

## CCOc1ccc(/C=N/NC(=O)C2CC2c2ccc(C(C)(C)C)cc2)cc1OCC (configuration not stated)
  EC50: 5 µM
